Data from patent publication US8178570B2, “Tie-2 modulators and methods of use” (Exelixis, Inc., priority 2003, dated 2012).

Molecular target: Tie-2 (Homo sapiens, UniProt Q02763)
Experiment: Tie-2 tyrosine kinase activity: kinase-dependent ATP consumption (pEY substrate, luciferase/luciferin chemiluminescence) or 33P-ATP incorporation into substrate
Format: biochemical
Conditions: Tie-2 (human enzyme) inhibition, Table 2, class symbols A-D
Experimental: One measure of inhibition is Ki. […] The Ki for a compound is determined from the IC50 based on three assumptions. First, only one compound molecule binds to the enzyme and there is no cooperativity. […] Third, the enzymatic rate of the enzyme-inhibitor complex is zero. The rate (i.e., compound concentration) data are fitted to the equation:
[formula] where V is the observed rate, Vmax, is the rate of the free enzyme, I0 is the inhibitor concentration, E0 is the enzyme concentration, and Kd is the dissociation constant of the enzyme-inhibitor complex.
Tyrosine kinase activity is determined by 1) measurement of kinase-dependent ATP consumption by in the presence of a generic substrate such as polyglutamine, tyrosine (pEY), by luciferase/luciferin-mediated chemiluminescence or; 2) incorporation of radioactive phosphate derived from ^33P-ATP into a generic substrate which has been absorbed onto the well surface of polystyrene microtiter plates. Phosphorylated substrate products are quantified by scintillation spectrometry.
Inhibition is indicated as IC50 with following key: A=IC50 less than 50 nM, B=IC50 greater than 50 nM, but less than or equal to 1000 nM, C=IC50 greater than 1000 nM, but less than 10,000 nM, and D=IC50 10,000 nM or greater. The abbreviation for human enzyme, Tie-2, is defined as tyrosine kinase with immunoglobulin and EGF repeats.

Tie-2, sequence (Q02763 23-1124): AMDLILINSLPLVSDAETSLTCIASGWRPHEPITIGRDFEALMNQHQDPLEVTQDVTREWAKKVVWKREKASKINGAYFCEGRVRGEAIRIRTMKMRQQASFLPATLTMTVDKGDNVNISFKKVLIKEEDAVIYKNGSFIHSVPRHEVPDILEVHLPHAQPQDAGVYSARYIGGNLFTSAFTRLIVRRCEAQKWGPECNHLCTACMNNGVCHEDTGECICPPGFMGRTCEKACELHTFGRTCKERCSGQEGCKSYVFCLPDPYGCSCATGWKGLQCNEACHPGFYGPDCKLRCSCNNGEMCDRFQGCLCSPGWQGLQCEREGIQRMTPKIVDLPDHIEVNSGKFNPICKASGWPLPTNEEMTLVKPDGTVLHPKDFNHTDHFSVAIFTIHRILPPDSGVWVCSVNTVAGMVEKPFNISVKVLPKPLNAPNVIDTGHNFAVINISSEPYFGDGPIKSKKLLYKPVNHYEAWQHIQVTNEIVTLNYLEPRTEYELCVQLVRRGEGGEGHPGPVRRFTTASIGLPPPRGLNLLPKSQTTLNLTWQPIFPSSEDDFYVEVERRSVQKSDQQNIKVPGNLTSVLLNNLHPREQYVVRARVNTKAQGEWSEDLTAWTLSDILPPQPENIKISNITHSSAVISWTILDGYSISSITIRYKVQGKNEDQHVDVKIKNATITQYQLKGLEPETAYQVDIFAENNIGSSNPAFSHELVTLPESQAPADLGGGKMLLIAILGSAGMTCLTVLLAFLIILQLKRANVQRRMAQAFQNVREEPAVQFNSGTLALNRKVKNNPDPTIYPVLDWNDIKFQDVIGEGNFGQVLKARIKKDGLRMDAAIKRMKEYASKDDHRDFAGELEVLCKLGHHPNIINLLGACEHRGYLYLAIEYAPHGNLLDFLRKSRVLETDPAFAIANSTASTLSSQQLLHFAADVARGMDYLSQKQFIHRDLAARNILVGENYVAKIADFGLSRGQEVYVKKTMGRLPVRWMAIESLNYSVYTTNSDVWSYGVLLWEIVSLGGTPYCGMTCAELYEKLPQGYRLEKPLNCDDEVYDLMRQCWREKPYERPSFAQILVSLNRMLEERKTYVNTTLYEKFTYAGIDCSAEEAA

Row | Compound | IC50
1 | O=C(Cc1cccc2ccccc12)N(CCn1nc(-c2ccncc2)nc1-c1ccc(O)c(Cl)c1)C1CCCC1 [Entry 1, N-{2-[5-(3-chloro-4-hydroxyphenyl)-3-pyridin-4-yl-1H-1,2,4-triazol-1-yl]ethyl}-N-cyclopentyl-2-naphthalen-1-ylacetamide] | < 0.05 µM
2 | CCOC(=O)Cn1nc(-c2ccncc2)nc1-c1ccc(OC)c(Cl)c1 [Entry 2, ethyl {5-[3-chloro-4-(methyloxy)phenyl]-3-pyridin-4-yl-1H-1,2,4-triazol-1-yl}acetate] | ≥ 10 µM
3 | COc1ccc(-c2nc(-c3ccncc3)nn2CC(=O)NC2CCCC2)cc1Cl [Entry 3, 2-{5-[3-chloro-4-(methyloxy)phenyl]-3-pyridin-4-yl-1H-1,2,4-triazol-1-yl}-N-cyclopentylacetamide] | ≥ 10 µM
4 | CCOC(=O)Cn1nc(-c2ccc(OC)c(Cl)c2)nc1-c1ccncc1 [Entry 4, ethyl {3-[3-chloro-4-(methyloxy)phenyl]-5-pyridin-4-yl-1H-1,2,4-triazol-1-yl}acetate] | ≥ 10 µM
5 | COc1ccc(-c2nc(-c3ccncc3)n(CC(=O)NC3CCCC3)n2)cc1Cl [Entry 5, 2-{3-[3-chloro-4-(methyloxy)phenyl]-5-pyridin-4-yl-1H-1,2,4-triazol-1-yl}-N-cyclopentylacetamide] | ≥ 10 µM
6 | COC(=O)CCn1nc(-c2ccncc2)nc1-c1ccc(OC)c(Cl)c1 [Entry 6, methyl 3-{5-[3-chloro-4-(methyloxy)phenyl]-3-pyridin-4-yl-1H-1,2,4-triazol-1-yl}propanoate] | ≥ 10 µM
7 | COC(=O)CCn1nc(-c2ccc(OC)c(Cl)c2)nc1-c1ccncc1 [Entry 7, methyl 3-{3-[3-chloro-4-(methyloxy)phenyl]-5-pyridin-4-yl-1H-1,2,4-triazol-1-yl}propanoate] | ≥ 10 µM
8 | COc1ccc(-c2nc(-c3ccncc3)nn2CCCN(C(=O)Cc2cccc3ccccc23)C2CCCC2)cc1Cl [Entry 8, N-(3-{5-[3-chloro-4-(methyloxy)phenyl]-3-pyridin-4-yl-1H-1,2,4-triazol-1-yl}propyl)-N-cyclopentyl-2-naphthalen-1-ylacetamide] | ≥ 10 µM
9 | COc1ccc(-c2nc(-c3ccncc3)n(CCCN(C(=O)Cc3cccc4ccccc34)C3CCCC3)n2)cc1Cl [Entry 9, N-(3-{3-[3-chloro-4-(methyloxy)phenyl]-5-pyridin-4-yl-1H-1,2,4-triazol-1-yl}propyl)-N-cyclopentyl-2-naphthalen-1-ylacetamide] | ≥ 10 µM
10 | COc1ccc(-c2nc(-c3ccncc3)nn2CCN(C(=O)Cc2cccc3ccccc23)C2CCCC2)cc1Cl [Entry 10, N-(2-{5-[3-chloro-4-(methyloxy)phenyl]-3-pyridin-4-yl-1H-1,2,4-triazol-1-yl}ethyl)-N-cyclopentyl-2-naphthalen-1-ylacetamide] | < 0.05 µM
11 | O=C(Cc1cccc2ccccc12)N(CCn1nc(-c2ccc(O)c(Cl)c2)nc1-c1ccncc1)C1CCCC1 [Entry 11, N-{2-[3-(3-chloro-4-hydroxyphenyl)-5-pyridin-4-yl-1H-1,2,4-triazol-1-yl]ethyl}-N-cyclopentyl-2-naphthalen-1-ylacetamide] | 0.05 to 1 µM
12 | COc1ccc(-c2nc(-c3cccnc3)n(CC(=O)NC3CCCC3)n2)cc1Cl [Entry 12, 2-{3-[3-chloro-4-(methyloxy)phenyl]-5-pyridin-3-yl-1H-1,2,4-triazol-1-yl}-N-cyclopentylacetamide] | ≥ 10 µM
13 | COc1ccc(-c2nc(-c3cccnc3)nn2CCN(C(=O)Cc2cccc3ccccc23)C2CCCC2)cc1Cl [Entry 13, N-(2-{5-[3-chloro-4-(methyloxy)phenyl]-3-pyridin-3-yl-1H-1,2,4-triazol-1-yl}ethyl)-N-cyclopentyl-2-naphthalen-1-ylacetamide] | ≥ 10 µM
14 | CCOC(=O)Cn1nc(-c2ccncc2)nc1-c1ccc([N+](=O)[O-])cc1 [Entry 14, ethyl [5-(4-nitrophenyl)-3-pyridin-4-yl-1H-1,2,4-triazol-1-yl]acetate] | ≥ 10 µM
15 | CCOC(=O)Cn1nc(-c2ccncc2)nc1-c1cc(Cl)cc(Cl)c1 [Entry 15, ethyl [5-(3,5-dichlorophenyl)-3-pyridin-4-yl-1H-1,2,4-triazol-1-yl]acetate] | ≥ 10 µM
16 | CCOC(=O)Cn1nc(-c2cc(Cl)cc(Cl)c2)nc1-c1ccncc1 [Entry 16, ethyl [3-(3,5-dichlorophenyl)-5-pyridin-4-yl-1H-1,2,4-triazol-1-yl]acetate] | ≥ 10 µM

Row | Compound | IC50
17 | O=C(Cc1cccc2ccccc12)N(CCn1nc(-c2ccncc2)nc1-c1ccco1)C1CCCC1 [Entry 17, N-cyclopentyl-N-[2-(5-furan-2-yl-3-pyridin-4-yl-1H-1,2,4-triazol-1-yl)ethyl]-2-naphthalen-1-ylacetamide] | < 0.05 µM
18 | O=C(Cc1cccc2ccccc12)N(CCn1nc(-c2ccco2)nc1-c1ccncc1)C1CCCC1 [Entry 18, N-cyclopentyl-N-[2-(3-furan-2-yl-5-pyridin-4-yl-1H-1,2,4-triazol-1-yl)ethyl]-2-naphthalen-1-ylacetamide] | 0.05 to 1 µM
19 | O=C(Cc1cccc2ccccc12)N(CCn1nc(-c2cccs2)nc1-c1ccncc1)C1CCCC1 [Entry 19, N-cyclopentyl-2-naphthalen-1-yl-N-{2-[5-pyridin-4-yl-3-(2-thienyl)-1H-1,2,4-triazol-1-yl]ethyl}acetamide] | 0.05 to 1 µM
20 | COc1ccc(-c2nc(-c3ccncc3)nn2CCN(C(=O)c2cccc3ccccc23)C2CCCC2)cc1Cl [Entry 20, N-(2-{5-[3-chloro-4-(methyloxy)phenyl]-3-pyridin-4-yl-1H-1,2,4-triazol-1-yl}ethyl)-N-cyclopentylnaphthalene-1-carboxamide] | 1 to 10 µM
21 | COc1ccc(-c2nc(-c3ccncc3)nn2CCN(C(=O)c2ccc3ccccc3c2)C2CCCC2)cc1Cl [Entry 21, N-(2-{5-[3-chloro-4-(methyloxy)phenyl]-3-pyridin-4-yl-1H-1,2,4-triazol-1-yl}ethyl)-N-cyclopentylnaphthalene-2-carboxamide] | ≥ 10 µM
22 | COc1cccc(-c2nc(-c3ccncc3)nn2CCN(C(=O)Cc2cccc3ccccc23)C2CCCC2)c1 [Entry 22, N-cyclopentyl-N-(2-{5-[3-(methyloxy)phenyl]-3-pyridin-4-yl-1H-1,2,4-triazol-1-yl}ethyl)-2-naphthalen-1-ylacetamide] | < 0.05 µM
23 | COc1cccc(-c2nc(-c3ccncc3)n(CCN(C(=O)Cc3cccc4ccccc34)C3CCCC3)n2)c1 [Entry 23, N-cyclopentyl-N-(2-{3-[3-(methyloxy)phenyl]-5-pyridin-4-yl-1H-1,2,4-triazol-1-yl}ethyl)-2-naphthalen-1-ylacetamide] | 0.05 to 1 µM
24 | COc1ccc(-c2nc(-c3ccncc3)nn2CCCCN(C(=O)Cc2cccc3ccccc23)C2CCCC2)cc1Cl [Entry 24, N-(4-{5-[3-chloro-4-(methyloxy)phenyl]-3-pyridin-4-yl-1H-1,2,4-triazol-1-yl}butyl)-N-cyclopentyl-2-naphthalen-1-ylacetamide] | 1 to 10 µM
25 | COc1ccc(-c2nc(-c3ccncc3)n(CCCCN(C(=O)Cc3cccc4ccccc34)C3CCCC3)n2)cc1Cl [Entry 25, N-(4-{3-[3-chloro-4-(methyloxy)phenyl]-5-pyridin-4-yl-1H-1,2,4-triazol-1-yl}butyl)-N-cyclopentyl-2-naphthalen-1-ylacetamide] | ≥ 10 µM
26 | COc1ccc(-c2nc(-c3ccncc3)nn2CCN(C(=O)c2ccccc2)C2CCCC2)cc1Cl [Entry 26, N-(2-{5-[3-chloro-4-(methyloxy)phenyl]-3-pyridin-4-yl-1H-1,2,4-triazol-1-yl}ethyl)-N-cyclopentylbenzamide] | ≥ 10 µM
27 | COc1ccc(-c2nc(-c3ccncc3)n(CCN(C(=O)c3ccccc3)C3CCCC3)n2)cc1Cl [Entry 27, N-(2-{3-[3-chloro-4-(methyloxy)phenyl]-5-pyridin-4-yl-1H-1,2,4-triazol-1-yl}ethyl)-N-cyclopentylbenzamide] | ≥ 10 µM
28 | COc1ccc(-c2nc(-c3ccncc3)nn2CCN(C(=O)c2ccnc3ccccc23)C2CCCC2)cc1Cl [Entry 28, N-(2-{5-[3-chloro-4-(methyloxy)phenyl]-3-pyridin-4-yl-1H-1,2,4-triazol-1-yl}ethyl)-N-cyclopentylquinoline-4-carboxamide] | ≥ 10 µM
29 | COc1ccc(-c2nc(-c3ccncc3)nn2CCN(C(=O)Nc2cccc3ccccc23)C2CCCC2)cc1Cl [Entry 29, N-(2-{5-[3-chloro-4-(methyloxy)phenyl]-3-pyridin-4-yl-1H-1,2,4-triazol-1-yl}ethyl)-N-cyclopentyl-N′-naphthalen-1-ylurea] | < 0.05 µM
30 | COc1ccc(-c2nc(-c3ccncc3)nn2CCN(C(=O)Nc2ccccc2)C2CCCC2)cc1Cl [Entry 30, N-(2-{5-[3-chloro-4-(methyloxy)phenyl]-3-pyridin-4-yl-1H-1,2,4-triazol-1-yl}ethyl)-N-cyclopentyl-N′-phenylurea] | ≥ 10 µM
31 | COc1ccc(-c2nc(-c3ccncc3)nn2CCN(C(=O)Cc2ccccc2)C2CCCC2)cc1Cl [Entry 31, N-(2-{5-[3-chloro-4-(methyloxy)phenyl]-3-pyridin-4-yl-1H-1,2,4-triazol-1-yl}ethyl)-N-cyclopentyl-2-phenylacetamide] | 1 to 10 µM
32 | COc1ccc(-c2nc(-c3ccccc3)nn2CCN(C(=O)Cc2cccc3ccccc23)C2CCCC2)cc1Cl [Entry 32, N-(2-{5-[3-chloro-4-(methyloxy)phenyl]-3-phenyl-1H-1,2,4-triazol-1-yl}ethyl)-N-cyclopentyl-2-naphthalen-1-ylacetamide] | ≥ 10 µM
